Laboratory results published in patent US12702644B2, “Pharmaceutical composition comprising ibuprofen and arginine” (priority 2021, dated 2026).

Experiments:
[1] = system: RAW 264.7 (murine macrophages); assay: Superoxide anion generation (DHE fluorescence) in murine macrophages stimulated with LPS; type: cell-based; conditions: FIG. 3; LPS 25 μM/mL, 60 min; Ibu 10, 50, 100 μM alone; Arg 50 μM alone; PBS
Experimental: The selected method measures the fluorescence of DHE generated from its interaction with superoxide anion (O2^−) to determine the inhibitory effect of the different formulations on the generation of O2^− in murine macrophages that have been stimulated with LPS. This method has been selected because, as Chen et al. [Chen, J., et al. (2013). Analysis of kinetics of dihydroethidium fluorescence with superoxide using xanthine oxidase and hypoxanthine assay. […]
After this incubation, basal fluorescence was measured on a Fluoroskan Ascent plate reader, Labsystems using λex=485 nm and λem=538 nm. […] The fluorescence of the plate was then re-recorded using the same filter as in the basal condition.
For the analysis of the results, the value corresponding to the basal fluorescence for each well was subtracted from each final time value. […]
Murine macrophages were stimulated with LPS (25 μM/mL) and treated with arginine 50 μM alone or with different concentrations of alkaline hypertonic ibuprofen (10, 50, and 100 μM) in PBS saline solution. The cells were loaded with dihydroethidium (DHE) for 30 min at 37° C. and after 60 min of stimulation, normalized fluorescence was determined with the basal reading. […]

[2] = system: patients with cystic fibrosis; conditions: CF patients, cited from earlier work

| Compound | inhibition of LPS-stimulated generation of superoxide anion [1] | FEV1 increase (average) ([2]; inhalation of 5 mL of 100 mg/mL twice daily, −8 ml after saline, difference not statistically significant) | exhaled NO ([2]; inhalation) |
| --- | --- | --- | --- |
| N=C(N)NCCC[C@H](N)C(=O)O [Arginine] | not inhibited | – | – |
| CC(C)Cc1ccc(C(C)C(=O)O)cc1 (stereo not shown) [Ibuprofen] | not inhibited | – | – |
| N=C(N)NCCC[C@H](N)C(=O)O [L-arginine] | – | 56 mL | significant increase |
